For one data set, the system named is human NSCLC cell lines. Kind of data set: Human cancer cell line proliferation inhibition (CellTiterGlo). The format is cell-based. Background: In ATP-based viability assays light output follows the ATP content of the culture.
The next data set relates to NCI-H3255 (L858R). Kind of data set: L858R human tumour xenograft, tumour growth inhibition. The note with it: 5-15 mg/kg BID; L858R human tumour xenografts in mice.
The format of data set [1] is in vivo.
Another data set concerns pEGFR. The experiment in a line: PC-9 (ex19del) PK/PD study, pEGFR pharmacodynamic readout. The note with it: 15 mg/kg single dose, over a 12-hour BID dosing window. The format is in vivo.
In a further data set the target is T1, MDR1 (Homo sapiens, UniProt P08183).
T1 construct: expressed in transfected cells; host or cells: MDCK
T1 sequence (P08183 whole entry): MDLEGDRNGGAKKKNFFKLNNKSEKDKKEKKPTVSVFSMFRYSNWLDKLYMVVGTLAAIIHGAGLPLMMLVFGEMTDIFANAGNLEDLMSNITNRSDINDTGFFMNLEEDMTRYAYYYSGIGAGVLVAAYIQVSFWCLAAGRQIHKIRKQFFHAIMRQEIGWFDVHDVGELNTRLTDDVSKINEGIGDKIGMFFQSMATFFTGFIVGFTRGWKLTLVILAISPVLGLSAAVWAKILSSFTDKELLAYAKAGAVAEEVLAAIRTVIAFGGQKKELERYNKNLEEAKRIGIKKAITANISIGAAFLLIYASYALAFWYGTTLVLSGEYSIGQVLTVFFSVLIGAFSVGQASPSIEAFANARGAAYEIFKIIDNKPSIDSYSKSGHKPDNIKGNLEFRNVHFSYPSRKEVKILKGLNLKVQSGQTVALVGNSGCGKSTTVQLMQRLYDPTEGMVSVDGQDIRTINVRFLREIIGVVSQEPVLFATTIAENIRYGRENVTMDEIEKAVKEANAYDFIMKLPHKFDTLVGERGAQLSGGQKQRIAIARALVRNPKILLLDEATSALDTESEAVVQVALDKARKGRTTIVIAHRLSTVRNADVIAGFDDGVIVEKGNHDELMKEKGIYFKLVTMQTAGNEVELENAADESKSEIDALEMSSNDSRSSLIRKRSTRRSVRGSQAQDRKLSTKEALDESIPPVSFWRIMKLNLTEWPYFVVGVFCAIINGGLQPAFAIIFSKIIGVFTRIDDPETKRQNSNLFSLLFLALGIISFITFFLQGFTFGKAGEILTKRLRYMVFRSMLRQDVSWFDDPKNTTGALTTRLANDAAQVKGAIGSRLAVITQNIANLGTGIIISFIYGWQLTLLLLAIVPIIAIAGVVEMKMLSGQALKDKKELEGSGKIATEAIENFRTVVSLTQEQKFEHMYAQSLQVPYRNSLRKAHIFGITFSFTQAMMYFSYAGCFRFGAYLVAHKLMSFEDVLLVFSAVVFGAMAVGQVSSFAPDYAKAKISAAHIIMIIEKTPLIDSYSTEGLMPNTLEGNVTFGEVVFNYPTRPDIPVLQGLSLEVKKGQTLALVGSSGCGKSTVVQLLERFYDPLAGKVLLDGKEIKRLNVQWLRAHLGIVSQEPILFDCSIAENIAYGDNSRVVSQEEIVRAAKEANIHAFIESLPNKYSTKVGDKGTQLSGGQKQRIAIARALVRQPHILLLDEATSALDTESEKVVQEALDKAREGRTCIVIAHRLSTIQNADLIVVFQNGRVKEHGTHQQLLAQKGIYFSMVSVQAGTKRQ
The experiment in a line: MDCK-MDR1 efflux. The format is in vitro ADME. The following applies: dog, read-out: MDCK-MDR1 ER.

Data set [2] deals with PC-9 derivative with an ex19del/C797S in cis double mutation. The experiment in a line: C797S double mutant knock-in xenograft, tumour growth inhibition. The note with it: 15 mg/kg BID, PC-9 ex19del/C797S xenograft.
Source text: (§1) A PC-9 derivative with an ex19del/C797S in cis double mutation was engineered by CRISPR knock-in.
Data set [3] has as its system pEGFR (phosphorylated EGFR, Tyr1068). The experiment in a line: pEGFR (Tyr1068) inhibition, AlphaLISA. The following applies: compared with gefitinib. (In general: Alpha assays give light when donor and acceptor beads are brought close together.)
Source text: as §1
A further data set concerns the target T2, BCRP (Homo sapiens, UniProt Q9UNQ0).
T2 construct: expressed in transfected cells; host or cells: MDCK
T2 sequence (Q9UNQ0 1-655): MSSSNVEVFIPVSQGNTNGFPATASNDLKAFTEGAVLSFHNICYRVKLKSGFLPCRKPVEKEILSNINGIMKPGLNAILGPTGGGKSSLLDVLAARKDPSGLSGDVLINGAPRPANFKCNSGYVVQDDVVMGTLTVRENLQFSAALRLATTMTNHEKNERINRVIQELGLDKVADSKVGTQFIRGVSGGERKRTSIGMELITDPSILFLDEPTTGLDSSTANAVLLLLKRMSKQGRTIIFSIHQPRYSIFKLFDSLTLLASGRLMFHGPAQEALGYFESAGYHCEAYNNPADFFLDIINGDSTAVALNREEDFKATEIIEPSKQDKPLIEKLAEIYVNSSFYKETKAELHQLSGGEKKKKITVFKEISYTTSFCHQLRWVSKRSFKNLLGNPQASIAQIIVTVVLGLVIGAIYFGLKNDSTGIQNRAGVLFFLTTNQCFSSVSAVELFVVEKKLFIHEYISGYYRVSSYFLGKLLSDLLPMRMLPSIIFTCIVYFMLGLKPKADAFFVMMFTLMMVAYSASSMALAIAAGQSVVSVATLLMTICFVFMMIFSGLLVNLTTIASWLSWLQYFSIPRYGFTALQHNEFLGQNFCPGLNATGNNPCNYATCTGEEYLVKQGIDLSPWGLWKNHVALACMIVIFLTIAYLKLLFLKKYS
Kind of data set: MDCK-BCRP efflux. The format is in vitro ADME. The following applies: dog, read-out: MDCK-BCRP ER.

Data set [4] is described as follows: Free CNS penetration (Kp,uu), rat brain slice method. The format is in vivo, mice and rats. The note with it: oral dosing; rat brain slice method for free fraction in brain; osimertinib run in parallel as benchmark. As to the method:
In order to characterise compound A in vitro and in vivo potency and selectivity for C797S-active double-mutant inhibitor vs. EGFR wild type, compound A was assessed in vitro and in vivo across a variety of engineered or endogenously occurring single (ex19del or L858R) or double (ex19del/C797S or L858R/C797S) mutant systems. In addition, the CNS exposure of compound A was also characterised using a gold-standard rat brain slice method to assess free exposure in brain tissue.
Compound A is an EGFR inhibitor of formula I(a). Compound A was tested across a panel of in vitro biochemical, cell signalling, and proliferation assays for potency against EGFR L858R and ex19del single mutants and/or the corresponding C797S double mutants. Additionally, compound A was tested for in vivo activity in mice bearing human NSCLC cell line xenografts NCI-H3255 (L858R) and PC-9 (ex19del), and in a PC-9-derived ex19del/C797S double mutant knock-in xenograft. Free CNS penetration (Kp,uu) was determined in nontumour bearing mice and rats. Osimertinib and/or gefitinib were used as benchmark molecules across assays.

Data set [5] deals with Ba/F3 lines expressing the noted EGFR constructs. Kind of data set: Ba/F3 proliferation inhibition (CellTiterGlo, 72 hr assay). The format is cell-based.
The nature of data set [6]: Caco-2 in vitro permeability (efflux ratio). The format is in vitro ADME. The note with it: human, read-out: CAco-2 ER. (In general: Caco-2 monolayers are a common model of the intestinal barrier.)
Another data set concerns PC-9 (ex19del). Kind of data set: ex19del human tumour xenograft, tumour growth inhibition.

Read-outs that look alike come from different tables or passages of the source.

Source text for NCI-H3255 (L858R): as §1

One may read the inhibition as the change of the read-out against control, counted positive when it falls. Read a high inhibition as a response far below the control. For the compound `COCC[C@H]1CNC(=O)c2c1[nH]c(-c1ccnc(C)n1)c2Nc1cccc(Cl)c1OC` [Compound A], the “inhibition of L858R, ex19del, L858R/C797S and ex19del/C797S mutants in proliferation assays” value (with human NSCLC cell lines (human NSCLC cell lines); in [5] (engineered Ba/F3)) was “high picomolar to low nanomolar” in each case. Also, the “selectivity for all tested mutants relative to wild-type EGFR” value (with human NSCLC cell lines (human cancer cells); in data set [5] (engineered Ba/F3 cells)) was above 150 x throughout. Moreover, the “tumour growth inhibition (TGI)” value is recorded as at least 90% in the data set with NCI-H3255 (L858R) and at least 90% with PC-9 (ex19del) (5-15 mg/kg BID, ex19del human tumour xenografts in mice). In addition, the tolerability entry in [1] (15 mg/kg BID or 50 mg/kg QD in mice) was “well tolerated”; in data set [1] (5-15 mg/kg BID, mice) it was “well tolerated”. For the same compound, the inhibition at 15 mg/kg with pEGFR was above 50%. For the same compound, the efflux ratio at 1 µM at MDR1 was determined as 0.95; at BCRP, 1.17; in data set [6] it was 1.76. For the same compound, the “in vivo tumour growth inhibition in the presence of C797S” value in [2] is “retained in vivo tumour growth inhibition”; in data set [2] (listed as compound A) it was “no drop-off in antitumour activity”. The “selectivity for all tested EGFR mutant cell lines relative to EGFR wild-type cell line NCI-H2073 (pEGFR inhibition IC50)” value in [3] was “exceeded that of gefitinib”. Also, the “brain exposure Kp,uu” value in [4] is listed as “comparable to Osimertinib”. Moreover, the “antitumour activity in EGFR single mutant xenografts” value in the data set with PC-9 (ex19del) (EGFR single mutant xenografts (ex19del or L858R), 15 mg/kg BID or 50 mg/kg QD in mice) is recorded as “regression”.

Source of the values: patent EP4534085A1, “COMPOUNDS FOR USE IN METHODS OF TREATING CANCER” (Scorpion Therapeutics, Inc., priority 2023, dated 2025).
